Key:
rats [1] = experiment: Radial arm maze task in rats, in vivo test for learning and memory (MK-801 amnesia); set-up: species or system rat; settings: MK-801 0.1 mg/kg, i.p., p<0.01
Experimental: Radial Arm Maze Task in Rats, an In vivo Test for Learning and Memory
The test was performed as previously described (Zhang, H.-T., Crissman, A. M., Dorairaj, N. R., Chandler, L. J., and O'Donnell, J. M., Neuropsychopharmacalogy, 2000, 23, 198–204.). Five days after initial housing, rats (male Spraque-Dawley (Harlan) weighing 250 to 350 g) were placed in the eight-arm radial maze (each arm was 60×10×12 cm high; the maze was elevated 70 cm above the floor) for acclimation for two days. Rats were then placed individually in the center of the maze for 5 minutes with food pellets placed close to the food wells, and then, the next day, in the wells at the end of the arms; 2 sessions a day were conducted. Next, four randomly selected arms were then baited with one pellet of food each. […] Four parameters were recorded: […]) working memory errors, i.e., entries into baited arms that had already been visited during the same trial; 2) reference memory errors, i.e., entries into unbaited arms; 3) total arm entries; and 4) the test duration (seconds), i.e., the time spent in the collection of all the pellets in the maze. […]
(§1) All data were analyzed by analyses of variance (ANOVA); individual comparisons were made using Kewman-Keuls tests. […]

rats [2] = experiment: Passive avoidance in rats, in vivo test for learning and memory (MK-801 amnesia); set-up: species or system rat; settings: MK-801 0.1 mg/kg pretreatment, 24 hours after shock, p<0.001
Experimental: Passive Avoidance in Rats, an In vivo Test for Learning and Memory
The test was performed as previously described (Zhang, H.-T., Crissman, A. M., Dorairaj, N. R., Chandler, L. J., and O'Donnell, J. M., Neuropsychopharmacology, 2000, 23, 198–204.). The apparatus (Model E10-16SC, Coulbourn Instruments, Allentown, Pa.) consisted of a two-compartment chamber with an illuminated compartment connected to a darkened compartment by a guillotine door. The floor of the darkened compartment consisted of stainless steel rods through which an electric foot-shock could be delivered from a constant current source. All experimental groups were first habituated to the apparatus the day before the start of the experiment. During the training, the rat (Male Spraque-Dawley (Harlan) weighing 250 to 350 g) was placed in the illuminated compartment facing away from the closed guillotine door for 1 minute before the door was raised. The latency for entering the darkened compartment was recorded. After the rat entered the darkened compartment, the door was closed and a 0.5 mA electric shock was administered for 3 seconds. […] The latency for entering the darkened compartment was recorded for up to 180 seconds, at which time the trial was terminated.
as §1

C[C@]12N[C@H](Cc3ccccc31)c1ccccc12 [MK-801]
Frequencies of working and reference memory errors compared to control (rats [1]): increased | Latency for entering the darkened compartment compared to the vehicle (rats [2]): markedly reduced
